Test results from PubChem BioAssay AID248 (DTP/NCI, 2004).
“And” between values parts separate entries of the source, which are not always exact repeats. Equal entries are not always repeated. Toxic doses and inconclusive results are not listed. No stated cut-off is given here; in the data, active means T/C of 150% or more; inactive means T/C below 125%.

System: L1210 leukemia ip in BDF1 mice, survival T/C
Experiment: NCI In Vivo Anticancer Drug Screen. Data for tumor model L1210 Leukemia (intraperitoneal) in B6D2F1 (BDF1) mice
Settings: endpoint: mean survival time, higher = longer survival
Method in brief: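 Antitumor effect is assessed in tumor-bearing animals. Survival in the compound arm is compared with a vehicle-dosed control arm and expressed as their quotient.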

[1] = dose: 100.0 mg/kg/injection, schedule: Q01DX001 (ip), vehicle: carboxymethylcellulose (CMC)
[2] = dose: 200.0 mg/kg/injection, schedule: Q01DX001 (ip), vehicle: carboxymethylcellulose (CMC)
[3] = dose: 400.0 mg/kg/injection, schedule: Q01DX001 (ip), vehicle: carboxymethylcellulose (CMC)
[4] = dose: 50.0 mg/kg/injection, schedule: Q01DX001 (ip), vehicle: carboxymethylcellulose (CMC)
[5] = dose: 200.0 mg/kg/injection, schedule: Q01DX001 (ip), vehicle: saline
[6] = dose: 100.0 mg/kg/injection, schedule: Q04DX003 (ip), vehicle: saline with Tween-80
[7] = dose: 200.0 mg/kg/injection, schedule: Q04DX003 (ip), vehicle: saline with Tween-80
[8] = dose: 400.0 mg/kg/injection, schedule: Q04DX003 (ip), vehicle: saline with Tween-80
[9] = dose: 100.0 mg/kg/injection, schedule: Q01DX009 (ip), vehicle: Klucel (hydroxypropylcellulose) (HPC)
[10] = dose: 200.0 mg/kg/injection, schedule: Q01DX009 (ip), vehicle: Klucel (hydroxypropylcellulose) (HPC)
[11] = dose: 400.0 mg/kg/injection, schedule: Q01DX009 (ip), vehicle: Klucel (hydroxypropylcellulose) (HPC)
[12] = dose: 100.0 mg/kg/injection, schedule: Q01DX009 (ip), vehicle: saline with Tween-80
[13] = dose: 200.0 mg/kg/injection, schedule: Q01DX009 (ip), vehicle: saline with Tween-80
[14] = dose: 400.0 mg/kg/injection, schedule: Q01DX009 (ip), vehicle: saline with Tween-80
[15] = dose: 100.0 mg/kg/injection, schedule: Q01DX001 (ip), vehicle: Klucel (hydroxypropylcellulose) (HPC)
[16] = dose: 400.0 mg/kg/injection, schedule: Q01DX001 (ip), vehicle: Klucel (hydroxypropylcellulose) (HPC)
[17] = dose: 100.0 mg/kg/injection, schedule: Q04DX003 (ip), vehicle: Klucel (hydroxypropylcellulose) (HPC)
[18] = dose: 200.0 mg/kg/injection, schedule: Q04DX003 (ip), vehicle: Klucel (hydroxypropylcellulose) (HPC)
[19] = dose: 400.0 mg/kg/injection, schedule: Q04DX003 (ip), vehicle: Klucel (hydroxypropylcellulose) (HPC)

Measured: T/C

O=C(CCCN1CCC(O)CC1)c1ccc(N2CC=C(c3ccccc3)CC2)cc1
inactive: dose: 100.0 mg/kg/injection, schedule: Q04DX002 (ip), vehicle: Klucel (hydroxypropylcellulose) (HPC) 104 % of control | dose: 200.0 mg/kg/injection, schedule: Q04DX002 (ip), vehicle: Klucel (hydroxypropylcellulose) (HPC) 100 % of control

O=C(CC1CCCCN1)CC1CCCCN1 (stereo not drawn)
inactive: dose: 100.0 mg/kg/injection, schedule: Q04DX003 (ip), vehicle: saline 92 % of control | dose: 200.0 mg/kg/injection, schedule: Q04DX003 (ip), vehicle: saline 101 % of control

COc1ccc(CCNC(=O)C2CCN(CCc3ccc(OC)c(OC)c3)CC2)cc1OC
inactive: [1] 102 % of control | [2] 96 % of control | [3] 89 % of control

COC(=O)c1ccc(S(=O)(=O)O)cc1[N+](=O)[O-]
inactive: dose: 100.0 mg/kg/injection, schedule: Q04DX002 (ip), vehicle: saline 100 % of control | dose: 200.0 mg/kg/injection, schedule: Q04DX002 (ip), vehicle: saline 88 % of control | dose: 400.0 mg/kg/injection, schedule: Q04DX002 (ip), vehicle: saline 96 % of control

CCNC(=O)Nc1cccc(NC(=O)C(=O)O)c1 (tested in a mixture with another compound)
inactive: dose: 100.0 mg/kg/injection, schedule: Q01DX001 (ip), vehicle: gum acacia 87 % of control | dose: 200.0 mg/kg/injection, schedule: Q01DX001 (ip), vehicle: gum acacia 97 % of control | dose: 400.0 mg/kg/injection, schedule: Q01DX001 (ip), vehicle: gum acacia 96 % of control

O=C1C(Cl)=C(N/N=c2/[nH][nH]/c(=N/NC3=C(Cl)C(=O)c4ccccc4C3=O)c3ccccc23)C(=O)c2ccccc21
inactive: dose: 25.0 mg/kg/injection, schedule: Q01DX001 (ip), vehicle: carboxymethylcellulose (CMC) 104 % of control | [4] 101 % of control

O=C(O)C1CCCCC1/C=N/Nc1ccc([N+](=O)[O-])cc1[N+](=O)[O-] (stereo not drawn)
inactive: dose: 50.0 mg/kg/injection, schedule: Q01DX001 (ip), vehicle: saline 93 % of control | [5] 89 % of control

COC(=O)C(C#N)Cc1ccccc1Cl (stereo not drawn)
inactive: [6] 90 % of control | [7] 96 % of control | [8] 98 % of control

CC(=O)Nc1ccc(NC(=O)Nc2cc(Cl)ccc2C)cc1
inactive: [9] 91 % of control | [10] 93 % of control | [11] 96 % of control

Nc1nc2c(c(=O)[nH]1)N1CN(c3ccc(C(=O)NC(CCC(=O)O)C(=O)O)cc3)CCC1CN2 (stereo not drawn)
inactive: dose: 1.0 mg/kg/injection, schedule: Q01DX009 (ip), vehicle: saline 94 % of control | dose: 2.0 mg/kg/injection, schedule: Q01DX009 (ip), vehicle: saline 100 % of control | dose: 4.0 mg/kg/injection, schedule: Q01DX009 (ip), vehicle: saline 89 % of control | dose: 4.0 mg/kg/injection, schedule: Q04DX003 (ip), vehicle: saline 94 % of control | dose: 8.0 mg/kg/injection, schedule: Q01DX009 (ip), vehicle: saline 100 % of control | dose: 8.0 mg/kg/injection, schedule: Q04DX003 (ip), vehicle: saline 109 % of control | dose: 16.0 mg/kg/injection, schedule: Q01DX009 (ip), vehicle: saline 94 % of control | dose: 16.0 mg/kg/injection, schedule: Q04DX003 (ip), vehicle: saline 87 % of control | dose: 32.0 mg/kg/injection, schedule: Q04DX003 (ip), vehicle: saline 101 % of control | dose: 64.0 mg/kg/injection, schedule: Q04DX003 (ip), vehicle: saline 95 % of control

O=C(O)CCC(=O)Nc1ccc(F)cc1
inactive: [9] 103 % of control | [10] 93 % of control | [11] 93 % of control

CC(CNC1=NCCN1)c1cccc2ccccc12 (stereo not drawn)
inactive: dose: 50.0 mg/kg/injection, schedule: Q01DX009 (ip), vehicle: Klucel (hydroxypropylcellulose) (HPC) 111 % of control | [9] 103 % of control | [10] 108 % of control

CC1(C)C2CCC(=O)OC1CC2 (stereo not drawn)
inactive: dose: 5.0 mg/kg/injection, schedule: Q01DX001 (ip), vehicle: saline 116 % of control | dose: 10.0 mg/kg/injection, schedule: Q01DX001 (ip), vehicle: saline 100 % of control | dose: 20.0 mg/kg/injection, schedule: Q01DX001 (ip), vehicle: saline 86 % of control | dose: 40.0 mg/kg/injection, schedule: Q01DX001 (ip), vehicle: saline 108 % of control

O=C(COc1c(Cl)cc(Cl)cc1Cl)NCc1ccc(Cl)cc1
inactive: [12] 100 % of control | [13] 109 % of control | [14] 101 % of control

N#Cc1nc2c(nc1N)CCCCCCCCCC2
inactive: [15] 96 % of control | [16] 92 % of control

CN=NC(OC(C)=O)(c1ccccc1)c1ccccc1
inactive: [15] 101 % of control | [9] 100 % of control | [17] 108 % of control | dose: 200.0 mg/kg/injection, schedule: Q01DX001 (ip), vehicle: Klucel (hydroxypropylcellulose) (HPC) 95 % of control | [10] 97 % of control | [18] 103 % of control | [16] 94 % of control | [11] 105 % of control | [19] 101 % of control

Cc1ccc(S)cc1
inactive: dose: 100.0 mg/kg/injection, schedule: Q01DX009 (ip), vehicle: saline 87 % of control

O=[N+]([O-])c1cc(C(F)(F)F)ccc1Oc1ccccc1
inactive: [6] 95 % of control | [7] 110 % of control | [8] 101 % of control

CN(C)C(=O)c1cccc(NC(=O)Oc2ccccc2)c1
inactive: [12] 109 % of control | [6] 102 % of control | [13] 101 % of control | [7] 100 % of control | [14] 101 % of control | [8] 102 % of control

O=S(=O)(F)c1ccc(Cl)cc1CBr
inactive: dose: 100.0 mg/kg/injection, schedule: Q04DX002 (ip), vehicle: saline with Tween-80 107 % of control | dose: 200.0 mg/kg/injection, schedule: Q04DX002 (ip), vehicle: saline with Tween-80 101 % of control | dose: 400.0 mg/kg/injection, schedule: Q04DX002 (ip), vehicle: saline with Tween-80 92 % of control

CC([NH-])C(=O)O.CC([NH-])C(=O)O.[Ni+2] (stereo not drawn)
inactive: dose: 3.12 mg/kg/injection, schedule: Q01DX009 (ip), vehicle: saline 98 % of control | dose: 6.25 mg/kg/injection, schedule: Q01DX009 (ip), vehicle: saline 101 % of control | dose: 6.25 mg/kg/injection, schedule: Q04DX003 (ip), vehicle: saline 102 % of control | dose: 12.5 mg/kg/injection, schedule: Q01DX009 (ip), vehicle: saline 95 % of control | dose: 12.5 mg/kg/injection, schedule: Q04DX003 (ip), vehicle: saline 98 % of control and 104 % of control | dose: 25.0 mg/kg/injection, schedule: Q04DX003 (ip), vehicle: saline 105 % of control and 109 % of control | dose: 50.0 mg/kg/injection, schedule: Q04DX003 (ip), vehicle: saline 101 % of control

N#CC(N)=NC1CCC(C2CCC(N)CC2)CC1 (stereo not drawn)
inactive: [9] 97 % of control | [17] 107 % of control | [10] 97 % of control | [18] 94 % of control | [11] 98 % of control | [19] 97 % of control

O=C1C(Cl)=C(N2CCOCC2)C(=O)C(Cl)=C1N1CCOCC1
inactive: [4] 94 % of control | [1] 92 % of control | [2] 99 % of control | [3] 97 % of control

C1CCC(NC2=NCCO2)CC1
inactive: dose: 12.5 mg/kg/injection, schedule: Q04DX002 (ip), vehicle: saline with Tween-80 101 % of control | dose: 25.0 mg/kg/injection, schedule: Q04DX002 (ip), vehicle: saline with Tween-80 93 % of control | dose: 50.0 mg/kg/injection, schedule: Q04DX002 (ip), vehicle: saline with Tween-80 90 % of control

CN=C(N)c1ccc(S(=O)(=O)N=C(N)N)cc1
inactive: dose: 100.0 mg/kg/injection, schedule: Q01DX001 (ip), vehicle: saline 96 % of control | [5] 98 % of control | dose: 400.0 mg/kg/injection, schedule: Q01DX001 (ip), vehicle: saline 100 % of control
